Values quoted from earlier work, collected in patent US9999632B2, “Inhibition of pancreatic lipase” (RD Biomed Limited, priority 2009, dated 2018).

Settings: patients treated with Orlistat; cited from earlier work

For `CCCCCCCCCCC[C@@H](C[C@@H]1OC(=O)[C@H]1CCCCCC)OC(=O)[C@H](CC(C)C)NC=O` [Orlistat, tetrahydrolipstatin], the “patients affected by adverse effects (steatorrhoea, bloating, oily spotting, faecal urgency, faecal incontinence)” value is given as “up to 40 % of patients”.
